# Source: US20230021442A1, “PHENOTHIAZINE FERROPTOSIS INHIBITOR, PREPARATION METHOD THEREFOR AND APPLICATION THEREOF” (CHENGDU HENGHAO INNOVATIVE SCIENCE AND TECHNOLOGY CO., LTD., priority 2019, published 2023)
# Test system: fibrosarcoma cell line
# Experiment: screening model for ferroptosis, MTT cell viability assay with ferroptosis inducer Erastin
# Type: cell-based
# Details: Erastin 10 μM; 72 h; average of three tests
# Method: In this example, in order to study the inhibitor of ferroptosis, a screening model for ferroptosis was constructed in house, and the details are as follows:
# The screening model for ferroptosis mainly used the MTT cell viability assay. First, the fibrosarcoma cell line was cultured in a dish, and the cells in the logarithmic growth phase were seeded in a 96-well plate in specific numbers (3000-10000 cells/well), 100 μL per well, and then cultured in an incubator at 37° C. and 5% CO2 to allow the cells to adhere. After 24 h, 100 μL of compounds at certain concentrations prepared in the indicated medium and the ferroptosis inducer Erastin (final concentration of 10 μM) were added, and wells in triplicate were set up for each compound to ensure the accuracy of the results. A negative control group, positive control group (5 μM of ferrostain-1), blank control group and solvent control group were also set. After dosing, cells were placed in the incubator and cultured for 72h. […] The next day, the absorbance value at 570 nm was detected with a microplate reader to calculate the inhibition rate of the drug on ferroptosis. Generally, the absorbance value of the control group should be between 0.8-1.2 as a normal value. After obtaining the absorbance value data, the average value of wells in triplicate was calculated, and the inhibition rate was calculated using the following formula: […]
smiles,measurement,value
C=C(c1ccc2c(c1)Nc1ccccc1S2)c1cnc2c(cnn2C)c1 [Compound 28],EC50,58 nM
